Test results: patent US20250186379A1, “METHODS AND AGENTS FOR DECREASING INSULIN RESISTANCE” (Whitehead Institute for Biomedical Research, priority 2021, published 2025)
Entries after “also recorded” stand apart in the source; their conditions may differ.

Key:
Type in all cases: cell-based, human
[1] = system: IR condensates; assay: Imaging of IR puncta/condensates (immunofluorescence, IR-GFP) in HepG2 cells
Protocol: For insulin sensitivity and resistance experiments in HepG2 cells, cells were washed with EMEM once and cultured in EMEM for two days. […] To wash out insulin, cells were washed in EMEM seven times, which includes three quick washes, three 5 min washes and a long 20 minute-wash in EMEM at 37° C. In order to investigate insulin response, cells were acutely treated for 5 min with insulin diluted in EMEM supplemented with 1.25% fatty acid-free BSA at 37° C. with 5% CO2 in a humidified incubator.
Metformin (SIGMA, D150959-5G) was resuspended in sterile water to a concentration of 1M and diluted to the reported concentrations in the figures in cell media. […]
HepG2 cells, human liver spheroids and human tissue liver sections were fixed in 4% PFA (VWR, BT140770-10X10) in PBS for 10 min at room temperature. Cells were washed in PBS three times for 5 min and then blocked with 4% IgG-free BSA (VWR, 102643-516) for 15-60 min at room temperature. Cells were then incubated with 1:500 primary antibody in 4% IgG-free BSA at 4° C. overnight. The next day, cells were washed three times with PBS and incubated with 1:500 secondary antibodies in 4% IgG-free BSA at room temperature for 1 hr covered in foil. Cells were washed three times with PBS for 5 min. DNA was stained using 1:5000 Hoechst in PBS for 5 min at RT. Cells were washed three times with PBS for 5 min, stored at 4° C. until imaging. For tissue sections, samples were mounted using Vectashield mounting media (Vector Laboratories, Inc, H-1000). LSM880 microscope with Airyscan detector (ZEISS) was used for image acquisition. Images were then processed using Fiji/ImageJ v2.1.0/153c.
Cells expressing endogenous IR tagged with GFP were grown on 35 mm glass bottom dishes (MatTek Corporation, P35G-1.5-20-C). Cells were imaged at 37° C. using the SM880 Microscope with Airyscan detector with 63× objective and Zen Black software (ZEISS) at the W.M. Keck Microscopy Facility, MIT. Images were then processed using Fiji/ImageJ v2.1.0/153c.
To quantify IR fluorescent signal in puncta, Fiji/ImageJ v2.1.0/153c was used. A circle or an oval was drawn around IR puncta using the oval selection tool and the average fluorescence intensity in the circle/oval (=in the puncta) was determined using the measure tool on Fiji. Background was then subtracted as previously described. To quantify IR fluorescent signal at puncta in various cellular compartments, applicant identified the location of the plasma membrane, cytoplasm, nucleus and RNA FISH spots as follows. The plasma membrane location was identified based on IR immunofluorescence signal, IR-GFP fluorescent signal or CK18 immunofluorescence signal or cell edge. The nucleus was determined by the Hoechst stain for immunofluorescence and tc-PALM experiments or by IR-GFP fluorescence when HepG2 cells expressing IR-GFP were imaged. Given the overlap between Hoechst fluorescence and GFP fluorescence, artefactual green fluorescence coming from the Hoechst confounded IR puncta identification in the nucleus. Since the differences in IR puncta intensity and concentration between cytoplasm and nucleus in HepG2 cells was clear, nuclear outline was easily drawn based on IR-GFP fluorescent signal. Cytoplasm was considered the region between the plasma membrane and the nucleus. RNA FISH spots were identified based on RNA FISH probe fluorescence. Within the FISH spot, IR intensity was measured using the measure tool.
To estimate the number of IR puncta at the plasma membrane, cytoplasm, nucleus or in entire cells, IR puncta were initially counted in a cell slice using Fiji. The number obtained from the cell slice was then multiplied based on the estimated size of the plasma membrane, cytoplasm, nucleus or entire cell, which were obtained considering the length and width of the cell under investigation and the estimated height (˜5 um). […]

[2] = system: IR condensates; assay: tc-PALM of IR cluster/condensate dynamics in HepG2 cells expressing IR-Dendra2; settings: insulin sensitive cells; 20 mM H2O2
Protocol: Widefield Live-cell super-resolution imaging was performed in a photo-activation localization microscopy (PALM) approach using a Nikon Eclipse Ti microscope with a 100× oil immersion objective. The 405 nm and 561 nm laser beams were combined in an external platform with customized power densities to image Dendra2-tagged molecules as previously reported (56). Cells were maintained at 37° C. in a temperature-controlled platform during imaging, and the CO2 level was maintained at 5% by Leibovitz's L-15 Medium with no phenol red (ThermoFisher #21083027). In each imaging cycle, a 2400-frame video stream including a (256 pixel)2 region of interest (ROI) was recorded in 20 Hz acquisition rate with the EM-gain setting as 1000 on an Andor iXon Ultra 897 EMCCD. Each pixel conjugates with a (160 nm)2 area on the sample side. After PALM imaging, the Hoechst-stained nuclei of the same ROI were imaged with stronger 405 nm excitation through DAPI filter.
Detection localization. For each frame of a raw image, Gaussian particles were identified by pixelwise test of hypotheses, whose peak positions were individually fitted at subpixel resolution by maximum-likelihood regression with Gauss-Newton method (91). An additional deflation loop was performed to avoid missing dimmer particles when they were overshadowed by neighboring brighter ones. This multi-particle detection localization procedure has been integrated in a published, open-source MATLAB software called MTT (91).
Spatial clustering. DBSCAN and “manual selection” hybridized approach was applied to group spatially clustered detections via the qSR software (92). Firstly, DBSCAN was performed to generalize a proposal map of spatially clustered detections. Given that IR condensates can be tiny and transient, a “loose” parameter setting was used when performing the DBSCAN (length-scale=120 nm, N_min=4). This parameter combination was determined by comparing the rendered super-resolved reconstructions with the color-coded cluster maps until the clustering results visually make sense for most ROIs. Secondly, individual clusters were manually selected based on the clustering proposal map from last step. Some custom MATLAB code was used to reconstruct the IR distribution of each ROI superposed with the corresponding nuclei image, which was further cross-compared with the corresponding cluster map to determine which region each cluster belongs to (i.e., plasma-membrane, cytoplasm, or nucleus).
Temporal clustering. For each spatial cluster, time-correlated PALM (tc-PALM) analysis was performed along the time axis to extract the truly colocalized, time-correlated multimolecule bursting events (11, 13-14). The lifetime of a burst is simply defined as the timespan from the first to the last detections. More details about the quantitative validations and statistics of tc-PALM analysis can be found in NOTES and FIG. 11.
Widefield, live-cell, super-resolution imaging was performed in a photo-activation localization microscopy (PALM) approach using a Nikon Eclipse Ti microscope with a 100× oil immersion objective. The 405 nm and 561 nm laser beams were combined in an external platform with customized power densities to image Dendra2-tagged molecules as previously reported^24. Cells were cultured on imaging dishes (MatTek, P35G-1.5-20-C) and then imaged while maintaining both the temperature at 37° C. with a temperature-controlled platform and the level of CO2 at 5% with Leibovitz's L-15 Medium with no phenol red (Thermo Fisher, 21083027). During each imaging cycle, a 2400-frame video stream including a (256 pixel)^2 region of interest (ROI) was recorded in 20 Hz acquisition rate with the EM-gain setting as 1000 on an Andor iXon Ultra 897 EMCCD. Each pixel conjugates with a (160 nm)^2 area on the sample side. After PALM imaging, the Hoechst-stained nuclei of the same ROI were imaged using a stronger 405 nm excitation through DAPI filter. […] Following a 5-minute wait, the cells were imaged for 15-20 minutes.

[3] = system: transcriptional condensates at SMAD7; assay: IR-GFP and SMAD7 intronic RNA FISH colocalization in HepG2 cells; settings: insulin sensitive cells; H2O2; 3 nM insulin 5 min (FIG. 6E)

SMILES | IR condensates defects (signal intensity and lifetime) ([1]; insulin-resistant cells, 1 mM NAC 24 hours (FIGS. 19E-19F, 40B)) | incorporation of IR into condensates with insulin stimulation ([1]; insulin sensitive cells, 20 mM H2O2 for 30 min) | IR condensate dynamics [2] | IR incorporation in transcriptional condensates [3]
CC(=O)N[C@@H](CS)C(=O)O [NAC, N-acetyl cysteine, reference compound] | partially rescued IR condensates defects | – | – | –
OO [H2O2, reference compound] | – | caused a reduction in the incorporation of IR into condensates with insulin stimulation | caused reduced IR condensate dynamics; also recorded: altered IR condensate dynamics | caused a reduction in IR incorporation in transcriptional condensates
